These results are taken from patent US11046680B1, “Heteroaryl-substituted triazoles as APJ receptor agonists” (priority 2016, dated 2021).

The target of the assay is human APJ receptor (Homo sapiens (Human), UniProt P35414). The experiment in a line: biochemical. It counts as biochemical. To be noted: [35S]GTPγS binding, CHO membranes expressing human APJ receptor; read-out: Activity hAPJ SPA EC50 IP. In short, it runs like this:
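Membranes of a stable CHO line carrying human APJ (pFLAG-CMV-3) were used in a GTPγS binding format; buffer GDP, MgCl2 and NaCl were optimized, and plates were read after 90 min at RT.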
A general note: GTPγS is a poorly hydrolysed GTP analogue; its binding reports G protein activation.

Sequence of human APJ receptor (P35414 whole entry): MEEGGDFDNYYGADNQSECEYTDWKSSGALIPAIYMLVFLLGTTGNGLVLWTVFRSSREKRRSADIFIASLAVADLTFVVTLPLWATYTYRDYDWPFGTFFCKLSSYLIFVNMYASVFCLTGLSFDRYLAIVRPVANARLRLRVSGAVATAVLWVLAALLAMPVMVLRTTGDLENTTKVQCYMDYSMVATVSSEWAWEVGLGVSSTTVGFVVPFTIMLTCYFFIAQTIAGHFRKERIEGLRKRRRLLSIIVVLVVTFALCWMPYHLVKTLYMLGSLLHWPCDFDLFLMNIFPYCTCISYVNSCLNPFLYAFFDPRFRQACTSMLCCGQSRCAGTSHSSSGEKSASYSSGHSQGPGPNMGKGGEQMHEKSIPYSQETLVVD

A word on the EC50: it is the concentration that produces a half-maximal response. For `COC[C@@H](C)n1c(NS(=O)(=O)[C@@H](C)[C@H](OC)c2ncc(Cl)cn2)nnc1-c1ccn(C)n1` [Example 531.0, (1R,2S)-1-(5-chloro-2-pyrimidinyl)-1-methoxy-N-(4-((2R)-1-methoxy-2-propanyl)-5-(1-methyl-1H-pyrazol-3-yl)-4H-1,2,4-triazol-3-yl)-2-propanesulfonamide], the EC50 came to 50 nM. `CC(C)O[C@@H](c1ncc(Cl)cn1)[C@H](C)S(=O)(=O)Nc1nnc(-c2ccn(C)n2)n1C1CC1` [Example 532.0, (1S,2S)-1-(5-chloro-2-pyrimidinyl)-N-(4-cyclopropyl-5-(1-methyl-1H-pyrazol-3-yl)-4H-1,2,4-triazol-3-yl)-1-(2-propanyloxy)-2-propanesulfonamide]: the EC50 was 22 nM.

`COC[C@H](C)n1c(NS(=O)(=O)[C@@H](C)[C@H](C)c2ncc(Cl)cn2)nnc1-c1ccn(C)n1` [Example 533.0, (2S,3R)-3-(5-chloro-2-pyrimidinyl)-N-(4-((2S)-1-methoxy-2-propanyl)-5-(1-methyl-1H-pyrazol-3-yl)-4H-1,2,4-triazol-3-yl)-2-butanesulfonamide]: the EC50 was 110 nM.

Consider `COc1ncnc(OC)c1-n1c(NS(=O)(=O)[C@@H](C)[C@H](C)c2ccc(Cl)cn2)nnc1-c1ccn(C)n1` [Example 534.0, (2S,3R)-3-(5-chloro-2-pyridinyl)-N-(4-(4,6-dimethoxy-5-pyrimidinyl)-5-(1-methyl-1H-pyrazol-3-yl)-4H-1,2,4-triazol-3-yl)-2-butanesulfonamide], for which the EC50 was determined as 0.93 nM.

As for `COc1ncnc(OC)c1-n1c(NS(=O)(=O)[C@@H](C)[C@H](C)c2ccc(Cl)cn2)nnc1-c1cnn(C)c1` [Example 535.0, (2S,3R)-3-(5-chloro-2-pyridinyl)-N-(4-(4,6-dimethoxy-5-pyrimidinyl)-5-(1-methyl-1H-pyrazol-4-yl)-4H-1,2,4-triazol-3-yl)-2-butanesulfonamide], the EC50 is 0.66 nM. For the molecule `CC(C)O[C@@H](c1ncc(Cl)cn1)[C@H](C)S(=O)(=O)Nc1nnc(-c2cnn(C)c2)n1C1CC1` [Example 536.0, (1S,2S)-1-(5-chloro-2-pyrimidinyl)-N-(4-cyclopropyl-5-(1-methyl-1H-pyrazol-4-yl)-4H-1,2,4-triazol-3-yl)-1-(2-propanyloxy)-2-propanesulfonamide], the EC50 was determined as 70 nM. The value for `CC(C)O[C@@H](c1ncc(Cl)cn1)[C@H](C)S(=O)(=O)Nc1nnc(-c2ccn(C)n2)n1C(C)C` [Example 537.0, (1S,2S)-1-(5-chloro-2-pyrimidinyl)-N-(5-(1-methyl-1H-pyrazol-3-yl)-4-(2-propanyl)-4H-1,2,4-triazol-3-yl)-1-(2-propanyloxy)-2-propanesulfonamide] was 27 nM. On to `CC(C)O[C@@H](c1ncc(Cl)cn1)[C@H](C)S(=O)(=O)Nc1nnc(-c2ccn(C)n2)n1C1(C)CC1` [Example 538.0, (1S,2S)-1-(5-chloro-2-pyrimidinyl)-N-(4-(1-methylcyclopropyl)-5-(1-methyl-1H-pyrazol-3-yl)-4H-1,2,4-triazol-3-yl)-1-(2-propanyloxy)-2-propanesulfonamide], for which the EC50 stood at 20 nM. Under “(1R,2S)-N-(4-(2,6-dimethoxyphenyl)-5-(1-methyl-1H-pyrazol-3-yl)-4H-1,2,4-triazol-3-yl)-1-(5-fluoro-2-pyridinyl)-1-hydroxy-2-propanesulfonamide and (1S,2R)-N-(4-(2,6-dimethoxyphenyl)-5-(1-methyl-1H-pyrazol-3-yl)-4H-1,2,4-triazol-3-yl)-1-(5-fluoro-2-pyridinyl)-1-hydroxy-2-propanesulfonamide [Example 24.0]” stands 0.18 nM; under “(1R,2S)-N-(4-(2,6-dimethoxyphenyl)-5-(1-methyl-1H-pyrazol-3-yl)-4H-1,2,4-triazol-3-yl)-1-(5-fluoro-2-pyridinyl)-1-hydroxy-2-propanesulfonamide and (1S,2R)-N-(4-(2,6-dimethoxyphenyl)-5-(1-methyl-1H-pyrazol-3-yl)-4H-1,2,4-triazol-3-yl)-1-(5-fluoro-2-pyridinyl)-1-hydroxy-2-propanesulfonamide [Example 25.0]”, 15 nM. The value for “(1R,2S)-N-(4-(2,6-dimethoxyphenyl)-5-(1-methyl-1H-pyrazol-3-yl)-4H-1,2,4-triazol-3-yl)-1-methoxy-1-(5-methoxy-2-pyrazinyl)-2-propanesulfonamide and (1S,2R)-N-(4-(2,6-dimethoxyphenyl)-5-(1-methyl-1H-pyrazol-3-yl)-4H-1,2,4-triazol-3-yl)-1-methoxy-1-(5-methoxy-2-pyrazinyl)-2-propanesulfonamide [Example 307.0]” was 1 nM; that for “(1R,2S)-N-(4-(2,6-dimethoxyphenyl)-5-(1H-pyrro1o[2,3-b]pyridin-3-yl)-4H-1,2,4-triazol-3-yl)-1-methoxy-1-(5-methylpyrimidin-2-yl)propane-2-sulfonamide [Example 413.0]” was 30 nM; that for “(2R,3R)-3-(5-Cyanopyrimidin-2-yl)-N-(4-(2,6-dimethoxyphenyl)-5-(4-methylthiazol-2-yl)-4H-1,2,4-triazol-3-yl)-3-fluorobutane-2-sulfonamide and (2S,3S)-3-(5-cyanopyrimidin-2-yl)-N-(4-(2,6-dimethoxyphenyl)-5-(4-methylthiazol-2-yl)-4H-1,2,4-triazol-3-yl)-3-fluorobutane-2-sulfonamide [Example 321.0]” was 1.6 nM. The value for “(2R,3S)-N-(4-(2,6-dimethoxyphenyl)-5-(1-methyl-1H-pyrazol-3-yl)-4H-1,2,4-triazol-3-yl)-3-(5-methyl-1-oxido-2-pyrazinyl)-2-butanesulfonamide and (2S,3R)-N-(4-(2,6-dimethoxyphenyl)-5-(1-methyl-1H-pyrazol-3-yl)-4H-1,2,4-triazol-3-yl)-3-(5-methyl-1-oxido-2-pyrazinyl)-2-butanesulfonamide [Example 280.0]” was 3.5 nM. Regarding “(2R,3S)-N-(4-(2,6-dimethoxyphenyl)-5-(1-methyl-1H-pyrazol-3-yl)-4H-1,2,4-triazol-3-yl)-3-(5-methyl-2-pyrazinyl)-2-butanesulfonamide and (2S,3R)-N-(4-(2,6-dimethoxyphenyl)-5-(1-methyl-1H-pyrazol-3-yl)-4H-1,2,4-triazol-3-yl)-3-(5-methyl-2-pyrazinyl)-2-butanesulfonamide [Example 279.0]”, the EC50 turned out to be 2.8 nM. Turning to “(2S)-N-(4-(2,6-dimethoxyphenyl)-5-(2-pyrazinyl)-4H-1,2,4-triazol-3-yl)-1-(5-fluoro-2-pyrimidinyl)-2-propanesulfonamide and (2R)-N-(4-(2,6-dimethoxyphenyl)-5-(2-pyrazinyl)-4H-1,2,4-triazol-3-yl)-1-(5-fluoro-2-pyrimidinyl)-2-propanesulfonamide [Example 182.0]”, the EC50 came to 84 nM. “(2S)-N-(4-(2,6-dimethoxyphenyl)-5-(6-methoxy-2-pyrazinyl)-4H-1,2,4-triazol-3-yl)-1-(5-fluoro-2-pyrimidinyl)-2-propanesulfonamide and (2R)-N-(4-(2,6-dimethoxyphenyl)-5-(6-methoxy-2-pyrazinyl)-4H-1,2,4-triazol-3-yl)-1-(5-fluoro-2-pyrimidinyl)-2-propanesulfonamide [Example 177.0]”: the concentration for a half-maximal effect (EC50) was 4.5 nM. Take “(R)-N-(4-(2,6-dimethoxyphenyl)-5-(1,5-dimethyl-1H-pyrazol-3-yl)-4H-1,2,4-triazol-3-yl)-1-(5-fluoropyrimidin-2-yl)propane-2-sulfonamide and (S)-N-(4-(2,6-dimethoxyphenyl)-5-(1,5-dimethyl-1H-pyrazol-3-yl)-4H-1,2,4-triazol-3-yl)-1-(5-fluoropyrimidin-2-yl)propane-2-sulfonamide [Example 46.0]”: the EC50 came to 31 nM.

Turning to “(R)-N-(4-(2,6-dimethoxyphenyl)-5-(1,5-dimethyl-1H-pyrazol-3-yl)-4H-1,2,4-triazol-3-yl)-1-(5-fluoropyrimidin-2-yl)propane-2-sulfonamide and (S)-N-(4-(2,6-dimethoxyphenyl)-5-(1,5-dimethyl-1H-pyrazol-3-yl)-4H-1,2,4-triazol-3-yl)-1-(5-fluoropyrimidin-2-yl)propane-2-sulfonamide [Example 53.0]”, the EC50 stood at 9.7 nM. Turning to “(R)-N-(4-(2,6-dimethoxyphenyl)-5-(1,5-dimethyl-1H-pyrazol-3-yl)-4H-1,2,4-triazol-3-yl)-1-(5-fluoropyrimidin-2-yl)propane-2-sulfonamide and (S)-N-(4-(2,6-dimethoxyphenyl)-5-(1,5-dimethyl-1H-pyrazol-3-yl)-4H-1,2,4-triazol-3-yl)-1-(5-fluoropyrimidin-2-yl)propane-2-sulfonamide [Example 54.0]”, the EC50 is 33 nM. Under “(R)-N-(4-(2,6-dimethoxyphenyl)-5-(1-methyl-1H-pyrazol-4-yl)-4H-1,2,4-triazol-3-yl)-1-(5-fluoropyrimidin-2-yl)propane-2-sulfonamide and (R)-N-(4-(2,6-dimethoxyphenyl)-5-(1-methyl-1H-pyrazol-4-yl)-4H-1,2,4-triazol-3-yl)-1-(5-fluoropyrimidin-2-yl)propane-2-sulfonamide [Example 40.0]” stands 5.2 nM; under “(R)-N-(4-(2,6-dimethoxyphenyl)-5-(1H-pyrazol-3-yl)-4H-1,2,4-triazol-3-yl)-1-(5-fluoropyrimidin-2-yl)propane-2-sulfonamide and (S)-N-(4-(2,6-dimethoxyphenyl)-5-(1H-pyrazol-3-yl)-4H-1,2,4-triazol-3-yl)-1-(5-fluoropyrimidin-2-yl)propane-2-sulfonamide [Example 71.0]”, 41 nM; under “(R)-N-(4-(2,6-dimethoxyphenyl)-5-(pyrimidin-2-yl)-4H-1,2,4-triazol-3-yl)-1-(5-fluoropyrimidin-2-yl)propane-2-sulfonamide and (S)-N-(4-(2,6-dimethoxyphenyl)-5-(pyrimidin-2-yl)-4H-1,2,4-triazol-3-yl)-1-(5-fluoropyrimidin-2-yl)propane-2-sulfonamide [Example 56.0]”, 74 nM.
